Data from patent US20060292072A1, “Agents for neutron capture therapy” (Pharmacyclics, Inc., priority 2001, published 2006).

Legend:
tumors = settings: prior art statement; cited from earlier work
[1] = test system: V79 Chinese hamster cells; test: V79 Chinese hamster cell survival assay after neutron irradiation; format: cell-based; settings: 30 ppm, incubated twelve hours; neutron beam 2.8×10^11 n/cm^2 min; colony growth 5-6 days
Method: In vitro activity for neutron capture therapy is determined, e.g., by measuring the effect of low-level, thermal neutron irradiation on the V79 […] cell line in culture, and measuring resultant cytotoxicity, for example as described by Fairchild et al., Cancer Research 50. After the V79 cells are exposed to a neutron capture agent, they are irradiated with a neutron beam at a fluence rate of 2.8×10^11 n/cm^2 min. The cells are plated for undisturbed colony growth for 5-6 days, after which the remaining cell population is assessed.
The effect of neutron irradiation on V79 Chinese hamster cells incubated for twelve hours with ^157Gd-Tex is determined by a modification of the procedure originally described by Fairchild et al., Cancer Research 50 (1990). Three sets of sample plates of V79 cells are prepared. The first set (control cells) are suspended with 30 ppm ^157Gd-Tex in growth medium. The second set (washed cells) are suspended with 30 ppm ^157Gd-Tex in growth medium, then washed 3 times with PBS, trypsinized and harvested with gadolinium from reagents prior to suspension. The third set (ambient cells) are suspended in a 30 ppm ^157Gd containing medium.
All of the cells are irradiated within 1-2 hours following suspension in growth medium at a population density of 3.0×10^5 cells/ml. The neutron beam fluence rate at the center of the sample is 2.8×10^11 n/cm^2 min. […]

Glioma 261 tumor = test: Neutron capture activity in mice with intracerebral Glioma 261 tumor; format: in vivo; settings: group A: Gd-Tex intravenous plus 1.2×10^12 neutrons/cm^2 (20 Gy), versus groups B-E; female C57BL/6 mice, up to 100 days
Method: In vivo activity for neutron capture therapy is determined, e.g., by post-mortem histological examination of brain tumor tissue by hematoxylin and eosin, as described in Saris et al., Cancer Research, vol. 52 (1992). The antitumor effects of neutron capture therapy are evaluated by implanting Glioma 261 tumor fragments into the brain of a mouse. Approximately 3 hours after administration of a neutron capture agent to be tested, the head is irradiated a with 1.2×10^12 neutron beam (resulting in a planned dose of […]). After 100 days the mouse is sacrificed and the tumorous and non-tumorous sections of the brain are stained with hematoxylin and eosin for histologic examination. The tumor bearing and control brain tissue sections are compared.
This procedure is a modification of a procedure initially described by Saris et al., Cancer Research, vol. 52 (1992). Glioma 261 tumor fragments are injected approximately 2 mm deep to the dura of the brain in 42 female C57BL/6 mice. The mice are randomized into 5 groups. The mice in group A receive […] mg/kg Gd-Tex and 1.2×10^12 neutrons/cm^2 resulting in 20 Gy. Group B mice receive 1.2×10^12 neutrons/cm^2 resulting in 20 Gy. The mice in group C receive […] mg/kg Gd-Tex and 10 Gy of photon irradiation. Group D receives […] mg/kg of Gd-Tex alone. Group E receives no treatment. […]

[2] = prior art statement; cited from earlier work

Q: For `O=C([O-])CN1CCN(CC(=O)[O-])CCN(CC(=O)O)CCN(CC(=O)[O-])CC1.[Gd+3]` [Gd-DOTA, gadoteric acid], which “selectivity for tumors / accumulation in tumor tissue” value (“selectivity for tumors / accumulation” for short) (tumors) is on record?
A: not found to be tumor selective

Q: For `O=C([O-])CN(CCN(CC(=O)[O-])CC(=O)O)CCN(CC(=O)[O-])CC(=O)O.[Gd+3]` [Gd-DTPA, gadolinium diethylenetriamine-pentaacetic acid], which “selectivity for tumors / accumulation” value (tumors) is on record?
A: not found to be tumor selective

Q: For `N[C@@H](Cc1ccc(B(O)O)cc1)C(=O)O` [p-boron-phenylalanine], which “selectivity for tumors / accumulation” value (tumors) is on record?
A: limited selectivity for tumors

Q: And the tumor/blood concentration ratios (tumors)?
A: poor tumor/blood concentration ratios

Q: For “^157Gd complex of 4,5-diethyl-10,23-dimethyl-9,24-bis(3-hydroxy propyl)-16,17-bis[2-[2-(2-methoxyethoxy)ethoxy]ethoxy]pentaazapentacyclo[20.2.1.1^3,6.1^8,11.0^14,19]heptacos a-1,3,5,7,9,11(27),12,14,16,18,20,22(25),23-tridecaene bis acetate [^157Gd-Tex]”, which “survival of the control cells compared with the washed or ambient cells” value [1] is on record?
A: significantly higher

Q: For “bis(acetato-O)[9,10-diethyl-20,21-bis[2-[2-(2-methoxyethoxy)ethoxy]ethoxy]-4,15-dimethyl-8,11-imino-3,6:16,13-dinitrilo-1,18-benzodiazacycloeicosine-5,14-dipropanolato-N1,N18,N23,N24,N25]gadolinium [Gd-Tex]”, which survival rate (Glioma 261 tumor) is on record?
A: greater survival rate than any of the other groups

Q: Which results are given for “tetrakiscarborane carboxylate ester of 2,4-(a,b-dihydroxyethyl)deuteroporphyrin [BOPP]”?
A: phototoxicity [2]: phototoxic; selectivity for tumors / accumulation in tumor tissue (tumors): poor selectivity for tumors
